Test results from patent publication US12570684B2 (UNIVERSITY OF TENNESSEE RESEARCH FOUNDATION, priority 2020, dated 2026).
Entries after “also recorded” stand apart in the source; their conditions may differ.

Legend:
[1] = target: MraY (Hydrogenivirga sp.) (Hydrogenivirga sp. 128-5-R1-1, UniProt Z9Y2G8N0L0); assay: MraY assay; format: biochemical
Procedure: Expression and purification of HyMraY. The gene mraY of Hydrogenivirga spp. 128-5-R1-1 was cloned with a N-terminal His6 tag into a pET22b vector. […] The proteins were purified using a nickel, cation exchange, and size exclusion chromatography.
MraY assay. MraY assay substrates, Park's nucleotide-N^ε-C6-dansylthiourea, neryl phosphate, were chemically synthesized according to the reported procedures.^7 Park's nucleotide-N^ε-C6-dansylthiourea (2 mM stock solution, 1.88 jiL), MgCl2 (0.5 M, 5 jiL), KCl (2 M, 5 jiL), Triton X-100 (0.5%, 5.63 jiL), Tris buffer (pH 8.0, 50 mM), neryl phosphate (0.1 M, 2.25 jiL), and inhibitor molecule (0-50 .ig/mL in Tris buffer) were placed in a 1.5 mL Eppendorf tube. […] (26° C.) and quenched with CHCl3 (100 jiL). […] The aqueous phase was assayed via reverse-phase HPLC.

HCT-116 [2] = assay: MTT cytotoxicity assay; format: cell-based; settings: 72 h
Procedure: (§1) Cell lines. The human primary PDAC cell lines PANC-1 (ATCC CRL 1469); Capan-2 (ATCC HTB-80) and metastatic PDAC cell lines Capan-1 (ATCC HTB-79), AsPC-1 (ATCC CRL-1682), L1210 (ATCC CCL-219), KB (ATCC CCL-17), HeLa, SiHa (ATCC HTB-35), HCT-116 (ATCC CCL-247), DLD-1 (ATCC CCL221), hTERT-HPNE (ATCC CRL-4023), Vero (ATCC CCL-81) were purchased from the ATCC. The cell lines were cultured and maintained in the media as recommended by the supplier. The cell lines were regularly tested for mycoplasma contamination and authenticated. In addition to ATCC cell lines, Dr. Glazer's lab generated patient-derived PDAC cell line, PD002. PD002 Cells were maintained and cultured in DMEM medium supplemented with 20% FBS and 100 IU/mL penicillin and incubated at 37° C. with 5% CO2.
(§2) MTT cytotoxicity assay. To study the effect of treatment with DPAGT1 inhibitors on the growth and proliferation of cells, a fixed number of cells (5×10^4 cells/well, 196 μL) were plated in a 96 well plate. Into each well 5 μL of drug concentration was added. After 72 h of incubation with drugs at 37° C., 5% CO2, 10 μL of MTT solution (5 mg/mL in PBS) was added and incubated another 3 h at 37° C., 5% CO2. The medium was removed, and DMSO (200 μL/well) was added. Viability was assessed on the basis of cellular conversion of MTT into a purple formazan product. The absorbance of the colored formazan product was measured at 570 nm by BioTek Synergy HT Spectrophotometer.

KB = assay: MTT cytotoxicity assay; format: cell-based; settings: 72 h
Procedure: as §1, §2

PD002 [3] = assay: MTT cytotoxicity assay; format: cell-based
Procedure: as §1, §2

SiHa [4] = assay: MTT cytotoxicity assay; format: cell-based; settings: 72 h
Procedure: as §1, §2

Vero = assay: MTT cytotoxicity assay; format: cell-based
Procedure: as §1, §2

cell lines in Table 2 = assay: MTT assays, summary over the cell lines in Table 2; format: cell-based
Procedure: as §1, §2

[5] = test system: Myocobacterium tuberculosis H37Rv, Mycobacterium avium 2285, Mycobacterium smegmatis (ATCC607); assay: Antimycobacterial activity (MIC); format: cell-based, Mycobacterium spp.; settings: M. tuberculosis H37Rv, M. avium 2285, M. smegmatis (ATCC607)
HCT-116 [6] = assay: Scratch (wound healing) assay; format: cell-based; settings: scratch assays
Procedure: (§3) Scratch Assay. A confluent monolayer was formed in 24-well plates. The monolayer was scratched by a sterile 200 μL pipette tip and washed with PBS to remove cell debris. Complete medium with CPPB (5) (0, 0.05, 0.1, 0.2 μM) were added and scratched areas were photographed with microscope. The scratched cells were incubated at 37° C., 5% CO2. After 24 h, medium was removed and cells were stained with a 1:1 mixture of crystal violet and PBS for 5 min., washed with PBS twice, and photographed with microscope. Wound areas were measured and recovered areas were calculated.

PD002 [7] = assay: Scratch (wound healing) assay; format: cell-based; settings: 0.2 μM, 24 h; untreated PD002 63%
Procedure: as §3

SiHa [8] = assay: Scratch (wound healing) assay; format: cell-based; settings: 0.2 μM
Procedure: as §3

[9] = test system: pancreatic cancer cell lines (Capan-2, PANC-1, and AsPC-1); assay: Scratch (wound healing) assay; format: cell-based, human; settings: 0.05, 0.1, and 0.2 μM, 24 h
Procedure: as §3

DPAGT1 gene = assay: RT-qPCR analyses of DPAGT1 expression level; format: cell-based; settings: PD002
PD002 [10] = assay: Checkerboard synergy (FIC index) with paclitaxel; format: cell-based
Procedure: The synergistic or antagonistic activities of CPPB were assessed in vitro via checkerboard technique.

AglH (M. jannaschii) = target: T1, AglH (M. jannaschii) (Methanocaldococcus jannaschii, UniProt Q58513); assay: AglH assay; settings: read-out: IC50 AglH (M. jannaschii)
T1 sequence (Q58513 1-301): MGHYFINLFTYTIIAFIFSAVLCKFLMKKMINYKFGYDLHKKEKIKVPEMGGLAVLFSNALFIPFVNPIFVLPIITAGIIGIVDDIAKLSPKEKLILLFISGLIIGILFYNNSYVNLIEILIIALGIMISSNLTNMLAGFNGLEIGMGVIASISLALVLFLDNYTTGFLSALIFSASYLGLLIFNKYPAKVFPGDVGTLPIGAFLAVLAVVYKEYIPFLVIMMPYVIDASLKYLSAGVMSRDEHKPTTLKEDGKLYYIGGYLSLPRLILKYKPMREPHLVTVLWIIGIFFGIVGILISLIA

MraY (Hydrogenivirga sp.), sequence (Z9Y2G8N0L0 7-365 limits assumed): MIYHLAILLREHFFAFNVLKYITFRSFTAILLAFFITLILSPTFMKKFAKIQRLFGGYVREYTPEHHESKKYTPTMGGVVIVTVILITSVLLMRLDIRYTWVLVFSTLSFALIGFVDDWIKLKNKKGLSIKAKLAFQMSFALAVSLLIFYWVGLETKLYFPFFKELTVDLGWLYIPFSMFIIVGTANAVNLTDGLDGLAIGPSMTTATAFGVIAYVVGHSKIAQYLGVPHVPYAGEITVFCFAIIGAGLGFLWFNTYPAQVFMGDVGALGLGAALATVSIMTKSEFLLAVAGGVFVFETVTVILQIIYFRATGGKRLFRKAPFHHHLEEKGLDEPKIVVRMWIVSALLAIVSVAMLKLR

“(2S,3S,4S)-2-((1R)-2-Amino-1-((2S,5R)-5-(2,4-dioxo-3,4-dihydropyrimidin-1(2H)-yl)-4-hydroxy-3-methoxytetrahydrofuran-2-yl)-2-oxoethoxy)-3,4-dihydroxy-N-(4-(4-(4-(trifluoromethoxy)-phenyl)piperidin-1-yl)benzyl)-3,4-dihydro-2H-pyran-6-carboxamide [CPPB]” showed an IC50 [1] of 10.3 µM, an IC50 (HCT-116 [2]) of 15 µM and an IC50 (KB) of 35 µM. For the same substance, the “cell viability of PD002 (MTT reduction assay)” value (PD002 [3]; 50 μM) was “significantly decreased”, the IC50 (PD002 [3]; MTT, 72 h) was 35 µM and the IC50 (SiHa [4]) was 15 µM. For the same substance, the IC50 (Vero; MTT, 72 h) was greater than 50 µM, the “antiproliferative activity against Vero” value (Vero; at 50 μM, normal kidney cell) was “did not show antiproliferative activity” and the “viability of all pancreatic cancers tested (MTT)” value (cell lines in Table 2; 20 μM concentration) was “remained viable”. For the same substance, the “cytotoxicity against a series of cancer and healthy cell lines” value (cell lines in Table 2; at 10 μM or higher concentrations) was “not cytotoxic”, the MIC [5] was 6.25 to 12.5 mg/L and the “cell migration of HCT-116” value (HCT-116 [6]) was “not inhibited; also recorded: did not inhibit migration”. The wound-healing rate (PD002 [7]) was “approximately 20%”, the “migration of SiHa” value (SiHa [8]) was “strongly inhibited migration” and the “migration of pancreatic cancer cell lines vs PBS control” value [9] was “migrated far less”. For the same substance, the DPAGT1 gene expression (DPAGT1 gene) was “without significantly decreasing”, the “synergistic effect with paclitaxel” value (PD002 [10]; PD002) was “strong synergistic effect” and the IC50 (PD002 [10]; alone, read-out: IC50 of the single agent against PD002) was 35 µM. For the same substance, the ΣFIC (PD002 [10]; entry 1, CPPB 0.10 μM + paclitaxel 0.63 μM) was 0.50, the IC50 (PD002 [10]; entry 1, with paclitaxel 0.63 μM, read-out: IC50 CA (CPPB in combination)) was 0.1 µM and the ΣFIC (PD002 [10]; entry 2, CPPB 0.10 μM + paclitaxel […]) was 0.13. It also gave an IC50 (PD002 [10]; entry 2, with paclitaxel […], read-out: IC50 CA (CPPB in combination)) of 0.1 µM, a ΣFIC (PD002 [10]; entry 3, CPPB 0.20 μM + paclitaxel 0.0049 μM) of 0.0096 and an IC50 (PD002 [10]; entry 3, with paclitaxel 0.0049 μM, read-out: IC50 CA (CPPB in combination)) of 0.2 µM. The ΣFIC (PD002 [10]; entry 4, CPPB 0.20 μM + paclitaxel 0.020 μM) was 0.021, the IC50 (PD002 [10]; entry 4, with paclitaxel 0.020 μM, read-out: IC50 CA (CPPB in combination)) was 0.2 µM and the ΣFIC (PD002 [10]; entry 5, CPPB 0.20 μM + paclitaxel 0.031 μM) was 0.26. The IC50 (PD002 [10]; entry 5, with paclitaxel 0.031 μM, read-out: IC50 CA (CPPB in combination)) was 0.2 µM, the ΣFIC (PD002 [10]; entry 6, CPPB 2.0 μM + paclitaxel 0.020 μM) was 0.021 and the IC50 (PD002 [10]; entry 6, with paclitaxel 0.020 μM, read-out: IC50 CA (CPPB in combination)) was 2 µM. It also gave a ΣFIC (PD002 [10]; entry 7, CPPB 2.0 μM + paclitaxel 0.039 μM) of 0.037, an IC50 (PD002 [10]; entry 7, with paclitaxel 0.039 μM, read-out: IC50 CA (CPPB in combination)) of 2 µM and a ΣFIC (PD002 [10]; entry 8, CPPB 2.0 μM + paclitaxel 0.31 μM) of 0.26. For the same substance, the IC50 (PD002 [10]; entry 8, with paclitaxel 0.31 μM, read-out: IC50 CA (CPPB in combination)) was 2 µM and the IC50 (AglH (M. jannaschii)) was 0.15 µM.
